Source: publication PMC6368365, “Didehydro-Cortistatin A Inhibits HIV-1 by Specifically Binding to the Unstructured Basic Region of Tat” (mBio, 2019)

What was measured:
[1] = test system: export function of HIV Rev; assay: Viral mRNA export in NL4-3-infected CEM-SS cells (qRT-PCR); assay type: cell-based, HIV-1; conditions: dCA 30 nM, 24 hours
Text: If dCA were to bind the basic domain of Tat in its disordered form, then one would predict it might also bind to other basic peptide sequences and block their functions. The two well-known proteins that share a similar basic domain with Tat are HIV-1 Rev protein and the cellular protein Hexim-1 (Fig. 3A). As such, we investigated whether dCA could inhibit these similar basic domain functions. The basic domain of Rev is responsible for its nuclear localization ([31]); therefore, we assessed whether dCA could impact the subcellular localization of Rev (Fig. 3B) as previously shown for Tat ([10]). We transfected HeLa-CD4-LTR-Luc cells with a plasmid expressing FLAG-tagged Rev and assessed Rev localization in the presence of 100 nM dCA. […] Twenty-four hours later, cells were collected, and total, nuclear, and cytoplasmic mRNAs were extracted, reverse transcribed, and quantified by quantitative real-time PCR (qRT-PCR).
Cells were infected with the NL4-3 strain for 24 hours. […] Total, nuclear, and cytoplasmic mRNAs were extracted, and viral messages were measured by qRT-PCR. […] Statistical significance was determined using one-way ANOVA with post hoc Tukey’s test, comparing the DMSO condition to the other conditions. ***, P < 0.0001; **, P < 0.001; *, P < 0.01. […] Seventy hours later, viability was measured. […]

[2] = in vivo; cited from earlier work

For `CN(C)C1CC23CCC4(O2)C(=CCC2(C)C(c5ccc6ccncc6c5)=CCC24)C=C3C(O)C1O` (centres unmarked) [dCA, didehydro-cortistatin A], the “export function of HIV Rev in CEM-SS cells” value [1] is given as “does not perturb the export function of HIV Rev in CEM-SS cells” and the “penetration of viral sanctuaries” value [2] is given as “penetrates viral sanctuaries such as the brain”.
